Like-named read-outs stand apart in the source and are kept apart here.
How the values were obtained:
[1] = system: human lung cancer strain NCI-H441; assay: NCI-H441 cell proliferation inhibitory activity (CellTiter-Glo, 4 days); format: cell-based; details: read-out: NCl-H441 IC50
In short: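 Readout: […] after the ATP-based reagent. Compound: serial dilutions in dimethyl sulfoxide.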

[2] = biological target: GDP-bound KRAS wild-type protein (Homo sapiens, UniProt P01116); assay: Binding to KRAS by surface plasmon resonance (SPR), dissociation constant KD; details: Single Cycle Kinetics
In short: (§1)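 Affinity is measured by surface plasmon resonance at 30°C against captured, GDP-loaded RAS carrying a biotinylated Avi tag. Compounds are titrated by single-cycle kinetics, and KD comes from a 1:1 fit.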

[3] = biological target: GDP-bound NRAS wild-type protein (Homo sapiens, UniProt P01111); assay: Binding to NRAS by surface plasmon resonance (SPR), KD and KD ratio to KRAS
In short: as §1

HRAS wild-type protein = HRAS wild-type protein (Homo sapiens, UniProt P01112); assay: Binding to HRAS by surface plasmon resonance (SPR), KD and KD ratio to KRAS
In short: as §1

[4] = ratio of KD for GDP-bound NRAS wild-type protein to KD for KRAS
[5] = ratio of KD for HRAS wild-type protein to KD for KRAS
[6] = 50% proliferation inhibitory concentration, four days
[7] = ratio of KD with respect to GDP-bound NRAS wild-type protein to KD with respect to KRAS
[8] = ratio of KD with respect to HRAS wild-type protein to KD with respect to KRAS

HRAS wild-type protein, sequence (P01112 whole entry): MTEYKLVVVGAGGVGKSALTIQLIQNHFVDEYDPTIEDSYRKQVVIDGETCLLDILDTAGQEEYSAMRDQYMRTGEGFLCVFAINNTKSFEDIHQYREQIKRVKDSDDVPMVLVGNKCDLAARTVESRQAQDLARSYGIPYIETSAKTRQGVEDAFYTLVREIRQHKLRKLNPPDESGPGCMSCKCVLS
GDP-bound NRAS wild-type protein, sequence (P01111 whole entry): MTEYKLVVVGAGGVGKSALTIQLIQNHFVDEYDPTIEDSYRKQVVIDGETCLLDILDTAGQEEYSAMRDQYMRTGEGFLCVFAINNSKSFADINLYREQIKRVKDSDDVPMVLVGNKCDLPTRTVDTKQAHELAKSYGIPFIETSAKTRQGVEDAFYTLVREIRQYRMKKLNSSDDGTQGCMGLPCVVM
GDP-bound KRAS wild-type protein, sequence (P01116 1-188 isoform P01116-2): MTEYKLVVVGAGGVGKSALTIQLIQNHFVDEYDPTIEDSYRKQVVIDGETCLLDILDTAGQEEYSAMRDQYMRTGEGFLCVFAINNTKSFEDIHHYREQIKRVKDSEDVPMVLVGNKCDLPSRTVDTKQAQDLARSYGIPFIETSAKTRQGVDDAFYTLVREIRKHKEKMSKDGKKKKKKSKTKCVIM

IC50 ([1]; NCI-H441 cells, 4 days) | Kd [2] | IC50 [1, 6] | Kd ([2]; 1:1 binding model) | Structure (SMILES) | NRAS /KRAS [3, 4] | HRAS /KRAS (HRAS wild-type protein; [5]) | NRAS /KRAS [3, 7] | HRAS /KRAS (HRAS wild-type protein; [8])
10.2 nM | 0.48 nM | – | – | CCC[C@H]1C(=O)N[C@@H]([C@@H](C)CC)C(=O)N(C)CC(=O)N(C)[C@H]2C/C=C\CCN(C2=O)[C@@H](Cc2ccc(C(F)(F)F)cc2)C(=O)N(C)CC(=O)N[C@@H](CCc2ccc(C(F)(F)F)c(Cl)c2)C(=O)N2CC3(CC3)C[C@H]2C(=O)N(C)C2(CCC2)C(=O)N(C)[C@@H](C(CC)CC)C(=O)N(C)[C@H](C(=O)N(C)C)CC(=O)N1C [PP3297] | A (a compound having 10 or more and less than 20 is denoted as A) | B (a compound having 3 or more and less than 10 is denoted as B) | – | –
9.9 nM | 0.18 nM | – | – | CCO[C@@H]1C[C@H]2C(=O)NC3(CC(C)(C)C3)C(=O)N(C)[C@@H](C3CCCC3)C(=O)N(C)[C@H](C(=O)N(C)CC)CC(=O)N(C)[C@@H]([C@H](C)OC)C(=O)N[C@@H]([C@@H](C)CC)C(=O)N(C)CC(=O)N(C)[C@H]3C/C=C\CCN(C3=O)[C@@H](Cc3ccc(C(F)(F)F)cc3)C(=O)N(C)CC(=O)N[C@@H](CCc3cc(F)c(C(F)(F)F)c(F)c3)C(=O)N2C1 [PP3217] | A (a compound having 10 or more and less than 20 is denoted as A) | B (a compound having 3 or more and less than 10 is denoted as B) | – | –
19.1 nM | 0.35 nM | – | – | CCCO[C@@H]1C[C@H]2C(=O)NC3(CC(C)(C)C3)C(=O)N(C)[C@@H](C3CCCC3)C(=O)N(C)[C@H](C(=O)N(C)CC)CC(=O)N(C)[C@@H](COCC)C(=O)N[C@@H]([C@@H](C)CC)C(=O)N3C[C@@H](F)C[C@H]3C(=O)N(C)[C@H]3C/C=C\CCN(C3=O)[C@@H](Cc3ccc(C)cc3)C(=O)N(C)CC(=O)N[C@@H](CCc3cc(F)c(C(F)(F)F)c(F)c3)C(=O)N2C1 [PP3461] | A (a compound having 10 or more and less than 20 is denoted as A) | A (a compound having 10 or more and less than 20 is denoted as A) | – | –
28.9 nM | 1.3 nM | – | – | CCO[C@@H]1C[C@H]2C(=O)OC3(CCC3)C(=O)N(C)[C@@H](C3CCCC3)C(=O)N(C)[C@H](C(=O)N(C)C)CC(=O)N(C)[C@@H](CC(C)C)C(=O)N[C@@H]([C@@H](C)CC)C(=O)N3CCC[C@H]3C(=O)N(C)[C@H]3C/C=C\CCN(C3=O)[C@@H](Cc3ccc(C)cc3)C(=O)N(C)CC(=O)N[C@@H](CCc3ccc(C(F)(F)F)c(OC)c3)C(=O)N2C1 [PP3380] | A (a compound having 10 or more and less than 20 is denoted as A) | B (a compound having 3 or more and less than 10 is denoted as B) | – | –
– | – | 178 nM | 1.1 nM | CCO[C@@H]1C[C@H]2C(=O)NC3(CCCC3)C(=O)N(C)[C@@H](C(CC)CC)C(=O)N(C)[C@H](C(=O)N3CCCC3)CC(=O)N(C)[C@@H](C)C(=O)N[C@@H]([C@@H](C)CC)C(=O)N(C)CC(=O)N(C)[C@H]3C/C=C\CCN(C3=O)[C@@H](CC3CCCCC3)C(=O)N(C)CC(=O)N[C@@H](CCc3cc(F)c(C(F)(F)F)c(F)c3)C(=O)N2C1 [PP1435] | – | – | A (a compound having 10 or more and less than 20 is denoted as A) | A (a compound having 10 or more and less than 20 is denoted as A)
– | – | 62.5 nM | 0.42 nM | CCO[C@@H]1C[C@H]2C(=O)NC3(CCC3)C(=O)N(C)[C@@H](C3CCCC3)C(=O)N(C)[C@H](C)CC(=O)N(C)[C@@H](CC3CCCC3)C(=O)N[C@@H]([C@@H](C)CC)C(=O)N(C)CC(=O)N(C)[C@H]3C/C=C\CCN(C3=O)[C@@H](Cc3ccc(C)cc3)C(=O)N(C)CC(=O)N[C@@H](CCc3cc(F)c(C(F)(F)F)c(F)c3)C(=O)N2C1 [PP1413] | – | – | B (a compound having 3 or more and less than 10 is denoted as B) | B (a compound having 3 or more and less than 10 is denoted as B)
– | – | 42.7 nM | 0.17 nM | CCCC[C@H]1C(=O)NC2(CCC2)C(=O)N(C)[C@@H](C2CCCC2)C(=O)N(C)[C@H](C(=O)N(C)C)CC(=O)N(C)[C@@H](CC)C(=O)N[C@@H]([C@@H](C)CC)C(=O)N(C)CC(=O)N(C)[C@H]2C/C=C\CCN(C2=O)[C@@H](Cc2ccc(C(F)(F)F)cc2)C(=O)N(C)CC(=O)N[C@@H](CCc2cc(F)c(C(F)(F)F)c(F)c2)C(=O)N1C [PP1150] | – | – | AA (a compound having 20 or more is denoted as AA) | A (a compound having 10 or more and less than 20 is denoted as A)
– | – | 5.1 nM | 0.077 nM | CCO[C@@H]1C[C@H]2C(=O)NC3(CCCC3)C(=O)N(C)[C@@H](C3CCCC3)C(=O)N(C)[C@H](C(=O)N3CCOCC3)CC(=O)N(C)[C@@H](CC)C(=O)N[C@@H]([C@@H](C)CC)C(=O)N(C)CC(=O)N(C)[C@H]3CC[C@@H](C)CN(C3=O)[C@@H](Cc3ccc(C(F)(F)F)cc3)C(=O)N(C)CC(=O)N[C@@H](CCc3cc(F)c(C(F)(F)F)c(F)c3)C(=O)N2C1 [PP1371] | – | – | A (a compound having 10 or more and less than 20 is denoted as A) | B (a compound having 3 or more and less than 10 is denoted as B)
– | – | 19.6 nM | 0.035 nM | CC[C@H](C)[C@@H]1NC(=O)[C@H](CC)N(C)C(=O)C[C@@H](C(=O)N(C)C)N(C)C(=O)[C@H](C2CCCC2)N(C)C(=O)C2(CCC2)NC(=O)[C@@H]2C[C@@H](OC)CN2C(=O)[C@H](CCc2cc(F)c(C(F)(F)F)c(F)c2)NC(=O)CN(C)C(=O)[C@H](Cc2ccc(C(F)(F)F)cc2)N2CC/C=C\C[C@@H](C2=O)N(C)C(=O)CN(C)C1=O [PP1130] | – | – | A (a compound having 10 or more and less than 20 is denoted as A) | B (a compound having 3 or more and less than 10 is denoted as B)
– | – | 16.5 nM | 0.12 nM | CC[C@H](C)[C@@H]1NC(=O)[C@H](CC)N(C)C(=O)C[C@@H](C(=O)N(C)C)N(C)C(=O)[C@H](C2CCCC2)N(C)C(=O)C2(CCCC2)NC(=O)[C@@H]2CCCN2C(=O)[C@H](CCc2cc(F)c(C(F)(F)F)c(F)c2)NC(=O)CN(C)C(=O)[C@H](Cc2ccc(C(F)(F)F)cc2)N2CC/C=C\C[C@@H](C2=O)N(C)C(=O)CN(C)C1=O [PP1273] | – | – | A (a compound having 10 or more and less than 20 is denoted as A) | B (a compound having 3 or more and less than 10 is denoted as B)
13.6 nM | 0.19 nM | – | – | CCC[C@H]1C(=O)N[C@@H](C2CCCC2)C(=O)N(C)CC(=O)N(C)[C@H]2C/C=C\CCN(C2=O)[C@@H](Cc2ccc(C)cc2)C(=O)N(C)CC(=O)N[C@@H](CCc2ccc(C(F)(F)F)c(Cl)c2)C(=O)N2CC3(CC3)C[C@H]2C(=O)NC2(CCC2)C(=O)N(C)[C@@H](C2CCCC2)C(=O)N(C)[C@H](C(=O)N(C)C)CC(=O)N1C [PP3444] | AA (a compound having 20 or more is denoted as AA) | A (a compound having 10 or more and less than 20 is denoted as A) | – | –
5.4 nM | 0.13 nM | – | – | CCC[C@H]1C(=O)N[C@@H]([C@@H](C)CC)C(=O)N(C)CC(=O)N(C)[C@H]2C/C=C\CCN(C2=O)[C@@H](Cc2ccc(C)cc2)C(=O)N(C)CC(=O)N[C@@H](CCc2ccc(C(F)(F)F)c(OC)c2)C(=O)N2CC3(CC3)C[C@H]2C(=O)N(C)C2(CCC2)C(=O)N(C)[C@@H](C(CC)CC)C(=O)N(C)[C@H](C(=O)N(C)C)CC(=O)N1C [PP3292] | A (a compound having 10 or more and less than 20 is denoted as A) | A (a compound having 10 or more and less than 20 is denoted as A) | – | –
– | – | 75.3 nM | 0.17 nM | CC[C@H](C)[C@@H]1NC(=O)[C@H](CC)N(C)C(=O)C[C@@H](C(=O)N(C)C)N(C)C(=O)[C@H](C2CCCC2)N(C)C(=O)C2(CCC2)NC(=O)CN(CC)C(=O)[C@H](CCc2cc(F)c(C(F)(F)F)c(F)c2)NC(=O)CN(C)C(=O)[C@H](Cc2ccc(C(F)(F)F)cc2)N2CC/C=C\C[C@@H](C2=O)N(C)C(=O)CN(C)C1=O [PP1143] | – | – | A (a compound having 10 or more and less than 20 is denoted as A) | A (a compound having 10 or more and less than 20 is denoted as A)
11.6 nM | 0.43 nM | – | – | C#CCN1CC(=O)N(C)[C@H]2C/C=C\CCN(C2=O)[C@@H](Cc2ccc(C(F)F)cc2)C(=O)N(C)CC(=O)N[C@@H](CCc2cc(F)c(C(F)(F)F)c(F)c2)C(=O)N2C[C@H](OC(C)C)C[C@H]2C(=O)N(C)C2(CCC2)C(=O)N(C)[C@@H](C(CC)CC)C(=O)N(C)[C@H](C(=O)N(C)C)CC(=O)N(C)[C@@H](CC(F)(F)F)C(=O)N[C@@H](C(C)C)C1=O [PP3496] | A (a compound having 10 or more and less than 20 is denoted as A) | A (a compound having 10 or more and less than 20 is denoted as A) | – | –

Structure (SMILES) | IC50 ([1]; NCI-H441 cells, 4 days) | Kd [2] | IC50 [1, 6] | Kd ([2]; 1:1 binding model) | NRAS /KRAS [3, 4] | HRAS /KRAS (HRAS wild-type protein; [5]) | NRAS /KRAS [3, 7] | HRAS /KRAS (HRAS wild-type protein; [8])
CCO[C@@H]1C[C@H]2C(=O)NC3(CCC3)C(=O)N(C)[C@@H](C3CCCC3)C(=O)N(C)[C@H](C(=O)N(C)C)CC(=O)N(C)[C@@H](CC3CCCC3)C(=O)N[C@@H]([C@@H](C)CC)C(=O)N(C)CC(=O)N(C)[C@H]3C/C=C\CCN(C3=O)[C@@H](Cc3ccc(C(F)(F)F)cc3)C(=O)N(C)CC(=O)N[C@@H](CCc3ccc(C(F)(F)F)c(OC)c3)C(=O)N2C1 [PP1248] | – | – | 7.3 nM | 0.069 nM | – | – | A (a compound having 10 or more and less than 20 is denoted as A) | A (a compound having 10 or more and less than 20 is denoted as A)

Source: patent EP4603105A1, “PHARMACEUTICAL COMPOSITION CONTAINING CYCLIC COMPOUND HAVING SELECTIVE KRAS INHIBITORY EFFECT AGAINST HRAS AND NRAS” (CHUGAI SEIYAKU KABUSHIKI KAISHA, priority 2022, dated 2024)
